# Source: ChEMBL document CHEMBL1201862, “PubChem BioAssay data set” (2004)
# The source made the active and inactive calls. Rule as the data show it: actives have a measured IC50 and inactives only a lower limit.
# Target: Envelope glycoprotein gp160 (Human immunodeficiency virus 1, UniProt Q6QLK5)
# Assay: cell-free HIV fusion peptide-binding blockers – biochemical, uHTS, fluorescence dequenching, […] (AID 1986)
# Sequence of Envelope glycoprotein gp160 (Q6QLK5 whole entry, the tested form may be a part): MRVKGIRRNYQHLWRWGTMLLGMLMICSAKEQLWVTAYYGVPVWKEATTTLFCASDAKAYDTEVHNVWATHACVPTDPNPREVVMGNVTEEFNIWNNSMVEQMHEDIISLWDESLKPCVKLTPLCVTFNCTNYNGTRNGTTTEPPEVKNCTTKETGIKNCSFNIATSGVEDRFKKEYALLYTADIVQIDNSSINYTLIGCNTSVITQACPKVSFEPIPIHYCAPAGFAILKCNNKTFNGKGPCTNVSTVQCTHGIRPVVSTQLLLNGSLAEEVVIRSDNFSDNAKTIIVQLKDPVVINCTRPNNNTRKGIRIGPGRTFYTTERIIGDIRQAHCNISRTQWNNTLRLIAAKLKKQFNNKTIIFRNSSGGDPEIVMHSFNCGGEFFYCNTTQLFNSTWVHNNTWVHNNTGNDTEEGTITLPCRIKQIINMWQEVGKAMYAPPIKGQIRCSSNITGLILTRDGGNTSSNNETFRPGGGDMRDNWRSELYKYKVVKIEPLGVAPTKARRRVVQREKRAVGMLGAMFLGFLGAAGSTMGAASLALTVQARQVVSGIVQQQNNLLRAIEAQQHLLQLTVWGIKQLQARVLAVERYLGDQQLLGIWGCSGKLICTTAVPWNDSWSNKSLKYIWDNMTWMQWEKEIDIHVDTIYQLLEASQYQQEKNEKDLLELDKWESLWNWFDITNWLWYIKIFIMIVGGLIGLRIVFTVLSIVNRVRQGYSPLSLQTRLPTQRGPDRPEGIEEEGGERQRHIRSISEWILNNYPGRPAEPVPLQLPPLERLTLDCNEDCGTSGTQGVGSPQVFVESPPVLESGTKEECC
compound,measurement,value
COc1cc(/C=C2/C(=N)N3C(=NC2=O)SN=C3S(C)(=O)=O)ccc1OS(=O)(=O)c1ccccc1,IC50,19.8 µM (active)
